Test results taken from PubChem BioAssay AID1918958 (Molecular Pharmacology Branch, DTP, NCI, 2023).
Where “and” joins values, the source holds several entries; their conditions need not be identical. Equal values may be shown once.

Test system: NCI-H196 complex spheroid viability
Experiment: Anticancer human tumor NCI-H196 cell line growth inhibition [LSD1];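 note: spheroids exposed to agents for 7 days before readout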;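 for viability, T/C: 100% = DMSO vehicle control viability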
Conditions: for viability, T/C: stronger effect = lower value
Text: Multicellular complex tumor spheroid response to LSD1 Inhibitor Iadademstat in combination with a variety of drugs and investigational agents in selected tumor cell lines
The current study was undertaken to assess response to LSD1 inhibitors in combination with standard-of-care drugs and investigational agents in solid tumor complex spheroid models as well as in the K-562 leukemia. Complex spheroids include a stromal component modeled by human endothelial cells (HUVEC) and fibroblasts modeled by human mesenchymal stem cells (MSCs). The concentration ranges selected for each drug and investigational agent were based upon clinically achievable concentrations if the clinical Cmax of the agent was known.
Compounds. The drugs and investigational agents used in this study are listed on Table 1. All of the agents used, including staurosporine (NSC755774) and gemcitabine (NSC613327), were obtained from the Developmental Therapeutics Program, NCI. FDA-approved anticancer drugs are available from the NCI at http://dtp.nci.nih.gov/branches/dscb/oncology_drugset_explanation.html. Drugs and investigational agents were >95% pure by proton nuclear magnetic resonance (NMR) and liquid chromatography/mass spectrometry (LC/MS). Stock solutions were prepared at 400x in DMSO, stored at -70 degrees C, and diluted in fresh medium prior to their use. The final concentration of DMSO in cell culture wells never exceeded 0.25% (v/v). The FDA-approved anticancer drug set is available from the Developmental Therapeutics Program at https://dtp.cancer.gov/organization/dscb/obtaining/available_plates.htm. All drugs and investigational agents were tested over a range starting from a high concentration at or near the clinical Cmax and decreasing in half-log increments. If the clinical Cmax for an agent had not been determined, the highest concentration tested was 10 microM.
Cell Lines. The patient-derived cancer cell (PDC) lines: 292921-168-R-J2-PDC, K24384-001-R-PDC, and 521955-158-R2-J5-PDC pancreatic carcinomas, 556581-035-R-J1 ovarian carcinoma, 324938-238-R-J1-PDC, 855422-203-R-J1-PDC and 883617-216-R-J1-PDC urothelial bladder carcinomas, 743489-274-T-PDC renal cell carcinoma, 138582-R-J1 Merkel cell tumor, K60290-347-R-J1 and K57222-313-R-J1-PDC glioblastomas, 653999-131-R-J2-PDC, LG0703-F948-PDC, and 349418-098-R-PDC non-small cell lung carcinomas, 885512-296-R-J2-PDC, 171881-019-R-J1-PDC breast carcinomas and 186277-243-T-J2-PDC and 233499-124-R-J2-PDC colon carcinomas were obtained from the NCI Patient-Derived Models Repository (PDMR, https://pdmr.cancer.gov). The established cell lines NCI/ADR-RES (RRID:CVCL_14520 and OVCAR-5 (RRID:CVCL_1628) ovarian carcinomas, 786-O (RRID:CVCL_1051) and A498 (RRID:CVCL_A498) renal cell carcinoma, NCI-H211 (ATCC, cat. CRL-5824; RRID:CVCL_1529), NCI-H196 (ATCC, cat. CRL-5823, RRID:CVCL_1509), SW 1271 (ATCC, cat. CRL-2177, RRID:CVCL_1716) and NCI-H1876 (ATCC, cat. CRL-5902, RRID:CVCL_1503) small cell lung carcinomas, MDA-MB-231 (RRID:CVCL_0062) and MDA-MB-468 (RRID:CVCL_0419)breast carcinomas (10-12). Pooled donor human umbilical vein endothelial cells (HUVEC, Lonza, cat. CC-2519) and human mesenchymal stem cells (hMSC, Lonza, cat. PT-2501) were purchased from Lonza (Walkersville, MD).
Cell Culture. All cells were maintained in an incubator at 37 degrees C and 5% CO2 with 95% humidity. The PDC lines were cultured according to standard operating procedures established by the NCI PDMR (https://pdmr.cancer.gov). Briefly all PDCs were thawed and cultured in Matrigel-coated flasks prepared with a working solution of 1X Ham's F-12 nutrient mix, without supplementation (Invitrogen, Waltham, MA, cat. 11765054), 100 U/mL penicillin-streptomycin (Invitrogen, cat. 15140122), and 2.5% Matrigel (Corning Inc., Corning, NY, cat. 354248) for the first three passages. […]

CC(C)CC(NC(=O)CNC(=O)c1cc(Cl)ccc1Cl)B1OC(=O)CC(CC(=O)O)(C(=O)O)O1 (centres undefined)
viability, T/C (compound 0.000316 µM): 108% and 104%
viability, T/C (compound 0.001 µM): 113% and 107%
viability, T/C (compound 0.00316 µM): 103% and 92%
viability, T/C (compound 0.01 µM): 83.3% and 57.1%
viability, T/C (compound 0.0316 µM): 34.6% and 20.3%
viability, T/C (compound 0.1 µM): 6.61% and 4.84%
IC50 (curve of compound): 22 nM and 12.6 nM

Cn1ncnc1C1c2n[nH]c(=O)c3cc(F)cc(c23)NC1c1ccc(F)cc1 (centres undefined) + NC1CC1c1ccc(-c2cccc(O)c2)cc1
IC50 (curve of first compound, second compound 0.1 µM): > 100 nM
IC50 (curve of first compound, second compound 0.316 µM): > 100 nM
IC50 (curve of first compound, second compound 1 µM): > 100 nM
IC50 (curve of first compound, second compound 3.16 µM): > 100 nM
IC50 (curve of first compound, second compound 10 µM): > 100 nM
viability, T/C (second compound 0.1 µM, first compound 0.000316 µM): 96.6%
viability, T/C (second compound 0.1 µM, first compound 0.001 µM): 100%
viability, T/C (second compound 0.1 µM, first compound 0.00316 µM): 102%
viability, T/C (second compound 0.1 µM, first compound 0.01 µM): 100%
viability, T/C (second compound 0.1 µM, first compound 0.0316 µM): 94.3%
viability, T/C (second compound 0.1 µM, first compound 0.1 µM): 98.3%
viability, T/C (second compound 0.316 µM, first compound 0.000316 µM): 104%
viability, T/C (second compound 0.316 µM, first compound 0.001 µM): 106%
viability, T/C (second compound 0.316 µM, first compound 0.00316 µM): 98.2%
viability, T/C (second compound 0.316 µM, first compound 0.01 µM): 102%
viability, T/C (second compound 0.316 µM, first compound 0.0316 µM): 101%
viability, T/C (second compound 0.316 µM, first compound 0.1 µM): 106%
viability, T/C (second compound 1 µM, first compound 0.000316 µM): 105%
viability, T/C (second compound 1 µM, first compound 0.001 µM): 98.9%
viability, T/C (second compound 1 µM, first compound 0.00316 µM): 101%
viability, T/C (second compound 1 µM, first compound 0.01 µM): 103%
viability, T/C (second compound 1 µM, first compound 0.0316 µM): 104%
viability, T/C (second compound 1 µM, first compound 0.1 µM): 106%
viability, T/C (second compound 3.16 µM, first compound 0.000316 µM): 92.2%
viability, T/C (second compound 3.16 µM, first compound 0.001 µM): 99.1%
viability, T/C (second compound 3.16 µM, first compound 0.00316 µM): 102%
viability, T/C (second compound 3.16 µM, first compound 0.01 µM): 102%
viability, T/C (second compound 3.16 µM, first compound 0.0316 µM): 99.2%
viability, T/C (second compound 3.16 µM, first compound 0.1 µM): 92.4%
viability, T/C (second compound 10 µM, first compound 0.000316 µM): 99.1%
viability, T/C (second compound 10 µM, first compound 0.001 µM): 104%
viability, T/C (second compound 10 µM, first compound 0.00316 µM): 95%
viability, T/C (second compound 10 µM, first compound 0.01 µM): 104%
viability, T/C (second compound 10 µM, first compound 0.0316 µM): 97.7%
viability, T/C (second compound 10 µM, first compound 0.1 µM): 91.4%

COc1cc(Nc2ncc3c(n2)-c2ccc(Cl)cc2C(c2c(F)cccc2OC)=NC3)ccc1C(=O)O
viability, T/C (compound 0.00316 µM): 96.3% and 91.4%
viability, T/C (compound 0.01 µM): 103% and 105%
viability, T/C (compound 0.0316 µM): 114% and 99.4%
viability, T/C (compound 0.1 µM): 119% and 109%
viability, T/C (compound 0.316 µM): 132% and 120%
viability, T/C (compound 1 µM): 118% and 121%
IC50 (curve of compound): > 1000 nM
